In publication PMC9457730, “Ajuforrestin A, an Abietane Diterpenoid from Ajuga ovalifolia var. calanthe, Induces A549 Cell Apoptosis by Targeting SHP2” (Molecules, 2022):

Columns and labels:
SHP2 [1] = biological target: T1, SHP2 (Homo sapiens, UniProt Q06124); assay: SHP2 catalytic activity in vitro (DiFMUP substrate); type: biochemical; parameters: GST; made in house; host or cells: Escherichia coli BL21; details: 15 nM purified SHP2, DiFMUP 10 μM
T1 sequence (Q06124 1-593): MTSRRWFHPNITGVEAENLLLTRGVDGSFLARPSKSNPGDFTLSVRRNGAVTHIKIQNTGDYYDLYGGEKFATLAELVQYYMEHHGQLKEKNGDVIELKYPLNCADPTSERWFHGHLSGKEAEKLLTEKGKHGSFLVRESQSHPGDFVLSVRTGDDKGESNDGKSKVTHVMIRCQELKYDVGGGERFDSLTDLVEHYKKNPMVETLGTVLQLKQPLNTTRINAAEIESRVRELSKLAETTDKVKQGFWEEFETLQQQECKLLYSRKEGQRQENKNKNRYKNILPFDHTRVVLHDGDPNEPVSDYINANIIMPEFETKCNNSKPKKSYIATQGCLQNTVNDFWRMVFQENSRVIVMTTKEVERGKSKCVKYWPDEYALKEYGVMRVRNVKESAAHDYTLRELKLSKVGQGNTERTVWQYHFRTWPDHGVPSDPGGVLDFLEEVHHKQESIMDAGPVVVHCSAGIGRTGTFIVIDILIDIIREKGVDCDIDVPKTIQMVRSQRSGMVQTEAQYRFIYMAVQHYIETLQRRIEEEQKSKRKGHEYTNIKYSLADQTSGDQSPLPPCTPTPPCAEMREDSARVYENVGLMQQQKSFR
Experimental: (§1) Escherichia coli BL21 was used to express SHP1 and SHP2 protein and proteins were purified with GST tag. In total, 15 nM SHP1 or SHP2 purified protein, a test compound (10 μM) or DMSO and reaction buffer in 100 μL constitute the reaction system. DiFMUP (10 μM) was added to the reaction system to initiate the reaction. The inhibitory effects of compounds 1–3 were detected by Varioskan Lux with 355 nm excitation and 460 nm emission wavelengths.

SHP1 = biological target: T2, SHP1 (Homo sapiens, UniProt P29350); assay: SHP1 catalytic activity in vitro (DiFMUP substrate); type: biochemical; details: for inhibitory effect on SHP1 catalytic activity: at high concentrations
T2 construct: GST; made in house; host or cells: Escherichia coli BL21
T2 sequence (P29350 whole entry): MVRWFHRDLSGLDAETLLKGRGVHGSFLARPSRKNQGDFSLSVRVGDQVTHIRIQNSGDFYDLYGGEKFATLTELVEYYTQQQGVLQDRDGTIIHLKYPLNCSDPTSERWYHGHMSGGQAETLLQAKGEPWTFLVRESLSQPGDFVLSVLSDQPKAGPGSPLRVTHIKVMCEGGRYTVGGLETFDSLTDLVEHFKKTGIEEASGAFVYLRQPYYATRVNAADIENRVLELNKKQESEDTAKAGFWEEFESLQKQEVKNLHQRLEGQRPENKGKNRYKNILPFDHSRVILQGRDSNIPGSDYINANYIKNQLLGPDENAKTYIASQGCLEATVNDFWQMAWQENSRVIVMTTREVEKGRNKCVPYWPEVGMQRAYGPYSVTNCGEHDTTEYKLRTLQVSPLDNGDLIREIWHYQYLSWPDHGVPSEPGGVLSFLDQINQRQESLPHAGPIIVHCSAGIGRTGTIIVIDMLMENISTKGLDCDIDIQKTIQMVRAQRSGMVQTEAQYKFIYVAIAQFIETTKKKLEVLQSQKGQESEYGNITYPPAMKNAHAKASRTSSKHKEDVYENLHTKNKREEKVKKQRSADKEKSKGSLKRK
Experimental: as §1

A549 cells [2] = assay: A549 cell wound-healing assay; type: cell-based, Human; details: up to 72 h
Experimental: When the A549 cell covered 80% of cell culture dish, these cells were seeded in 6-well plates at 5 × 10^5 cells/well, respectively. After the cells adhered to the plates, wound formation was performed by 200 μL pipette tips. Then, A549 cells were treated with different concentrations of compound 2 for 72 h. The image of each gap was obtained by Leica TCS SP8 (Leica, Wetzlar, Germany) at 0, 24, 72 h, respectively.

A549 cells [3] = assay: Cell viability assay (CCK-8); type: cell-based, Human
[4] = test system: cleaved caspase-3, 8, 9 and cleaved-PARP; assay: Western blot of apoptosis-related signaling pathway; type: cell-based, Human; details: A549, 72 h
Experimental: (§2) After compound 2 treatment, RIPA buffer was used to lyse cells’ protein. Equal sample proteins were added in SDS-PAGE, separated with 100 V in 60 min, then transferred into PVDF membranes, and the membranes incubated with corresponding primary antibodies (Huabio, Hangzhou, China). GAPDH or Tubulin served as normal control.

[5] = test system: p-ERK1/2, PI3K-AKT and STAT3 signaling pathways; assay: Western blot of ERK, AKT, STAT3 signaling pathway; type: cell-based, Human; details: A549, 72 h
Experimental: as §2

SHP2 [6] = assay: Western blot of cellular SHP2 / p-SHP2 expression; type: cell-based, Human; details: A549, 72 h
Experimental: as §2

A549 cells [7] = assay: Apoptosis flow cytometry (Annexin V-FITC/PI); type: cell-based, Human; details: A549, 72 h
Experimental: After 72 h treatment with different concentrations of compound 2, A549 cells were collected and rinsed three times with PBS. A 195 μL Annexin V-FITC buffer, 5 μL Annexin V-FITC, and 10 μL PI were sequentially added to each sample. The apoptotic cells were detected and analyzed by flow cytometry (ACEA NovoCyte, Hangzhou, China).

A549 cells [8] = assay: A549 cell invasion assay (matrigel); type: cell-based, Human; details: 24 h incubation
Experimental: The inner chamber was pre-coated with matrigel. Cells were seeded in the inner chamber with FBS-free medium, and DMEM medium with 5% FBS was added to the outer chamber. After a 24 h treatment with compound 2, 4% paraformaldehyde was used to fix the cells and 0.1% crystal violet was used to stain A549 cells.

SHP2 [9] = biological target: T1, SHP2; assay: Cellular thermal shift assay (CETSA); type: binding; parameters: endogenous in cells; host or cells: A549; details: A549 cell supernatant
Experimental: A total of 549 cells in 12 cm dish were collected and washed with PBS three times. After three rounds of liquid nitrogen-thaw and centrifugation at 13,000× g for 10 min at 4 °C, the cell supernatant was collected. The cell supernatant was divided into two aliquots of 50 μL each. Compound 2 or DMSO was added to each sample. The sample was heated from 50 °C to 62 °C, then cooled for 3 min [33]. Finally, all samples were processed under 4.7.

caspase-3 = assay: Caspase-3 activity assay (Ac-DEVD-AFC); type: cell-based, Human; details: A549, 72 h
Experimental: Ac-DEVD-AFC, a caspase-3 fluorimetric substrate, was used to detect caspase-3 activity. After 72 h treatment with compound 2, cell supernatants were collected. The 20 μL cell supernatants, 100 μM Ac-DEVD-AFC, and reaction buffer constituted the 100 μL reaction system, and was then incubated at 37 °C for another 1 h. Caspase-3 activity was detected by Varioskan Lux with 405 nm excitation and 510 nm emission wavelengths.

Structure (SMILES) | IC50 (SHP2 [1]) | inhibitory effect on SHP1 catalytic activity (SHP1) | A549 cell migration (A549 cells [2]) | A549 cell viability (A549 cells [3]; 24 h treatment) | IC50 (A549 cells [3]; Homo sapiens, A549, CCK-8, 72 h, read-out: IC50 A549 cell proliferation) | cleaved-PARP [4] | cleaved caspase-3, 8, 9 ([4]; various doses) | p-ERK1/2 expression [5] | PI3K-AKT and STAT3 signaling pathways ([5]; various concentrations) | inhibitory effect on SHP1 (SHP1; below 20 μM) | cellular SHP2 expression (SHP2 [6]) | expression of SHP2 and phosphorylation of SHP2 (SHP2 [6]) | apoptotic cells (A549 cells [7]) | A549 cell invasion ability (A549 cells [8]) | SHP2 stability with increasing concentration (CETSA) (SHP2 [9]) | SHP2 thermal stability (CETSA) (SHP2 [9]; 50 °C to 62 °C) | caspase-3 expression (caspase-3)
CC1=C(C)C2=CC(=O)C3=C(C(=O)c4oc(C)cc4C3=O)[C@@]2(C)CC1 [Compound 1, 12, 16-epoxy-17(15→16), 18(4→3)-diabeo-abieta-3,5,8, 12, 15-pentaene-7, 11, 14-trione] | 26 ± 1.41 µM | inhibited SHP1 catalytic activity at high concentrations |  |  |  |  |  |  |  |  |  |  |  |  |  |  | 
CC1=C(C)C2=CC(=O)c3c(c(O)c4occ(C)c4c3O)[C@@]2(C)CC1 [Compound 2, Ajuforrestin A] | 7.01 ± 0.85 µM |  | significantly restrained A549 cell migration | did not affect A549 cell viability | 8.68 ± 0.96 µM | activated | up-regulated | markedly inhibited p-ERK1/2 expression | obviously inhibited | no inhibitory effects | suppressed SHP2 expression in a dose-dependent manner | down-regulated | obvious increase in apoptotic cells | obviously decreased | raised SHP2 stability | decrease in SHP2 expression with increasing temperature was suppressed | significant rise in caspase-3 expression in a dose-dependent manner
CC1=C(C)C2=CC(=O)c3c(O)c4c(c(O)c3[C@@]2(C)CC1=O)OC[C@H]4C [Compound 3, Ajudecumin A] | 20 ± 1.31 µM | inhibited SHP1 catalytic activity at high concentrations |  |  |  |  |  |  |  |  |  |  |  |  |  |  | 
